Experimental data reported in patent US6737383B1, “Herbicidal oxadiazolidines” (priority 1999, dated 2004).

Tests used:
giant foxtail = assay: Test B pre/postemergence giant foxtail; format: in vivo, Setaria faberii
Method in brief: (§1)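 Herbicidal effect was estimated by eye on a ten-point control scale after plants spent twelve to sixteen days in a greenhouse following soil or foliar treatment. Foliar sprays targeted plants at one to four leaves; all doses were formulated in a non-phytotoxic solvent with surfactant.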

bamyardgrass = assay: Test B flood test barnyardgrass; format: in vivo, Echinochloa crus-galli
Method in brief: (§2)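 Read-out is a visual response score from 0 (no effect) to 10 (complete control), assigned by comparison with untreated controls. Treatment was applied at the 2-leaf stage, and plants stayed in the greenhouse for twelve to sixteen days before scoring.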

pigweed = assay: Test B pre/postemergence pigweed; format: in vivo, Amaranthus retroflexus
Method in brief: as §1

rape = assay: Test B pre/postemergence rape; format: in vivo, Brassica napus
Method in brief: as §1

cocklebur = assay: Test B pre/postemergence cocklebur; format: in vivo, Xanthium strumarium
Method in brief: as §1

purple nutsedge = assay: Test B pre/postemergence purple nutsedge; format: in vivo, Cyperus rotundus
Method in brief: as §1

bedstraw = assay: Test B pre/postemergence bedstraw; format: in vivo, Galium aparine
Method in brief: as §1

wheat = assay: Test B pre/postemergence wheat; format: in vivo, Triticum aestivum; details: Preemergence
Method in brief: as §1

blackgrass = assay: Test B pre/postemergence blackgrass; format: in vivo, Alopecurus myosuroides
Method in brief: as §1

duck salad = assay: Test B flood test duck salad; format: in vivo, Heteranthera limosa
Method in brief: as §2

rice = assay: Test B flood test rice; format: in vivo, Oryza sativa
Method in brief: as §2

velvetleaf = assay: Test B pre/postemergence velvetleaf; format: in vivo, Abutilon theophrasti; details: Preemergence
Method in brief: as §1

smallflower flatsedge = assay: Test B flood test smallflower flatsedge; format: in vivo, Cyperus difformis
Method in brief: as §2

crabgrass = assay: Test B pre/postemergence crabgrass; format: in vivo, Digitaria sanguinalis
Method in brief: as §1

surinam grass = assay: Test B pre/postemergence surinam grass; format: in vivo, Brachiaria decumbens
Method in brief: as §1

corn = assay: Test B pre/postemergence corn; format: in vivo, Zea mays
Method in brief: as §1

wild oat = assay: Test B pre/postemergence wild oat; format: in vivo, Avena fatua; details: Preemergence
Method in brief: as §1

morningglory = assay: Test B pre/postemergence morningglory; format: in vivo, Ipomoea hederacea
Method in brief: as §1

soybean = assay: Test B pre/postemergence soybean; format: in vivo, Glycine max; details: Preemergence
Method in brief: as §1

sugar beet = assay: Test B pre/postemergence sugar beet; format: in vivo, Beta vulgaris; details: Preemergence
Method in brief: as §1

[1] = Preemergence, Rate 31 g/ha, visual rating, scale 0 to 10 (0 no effect, 10 complete control)
[2] = Preemergence, Rate 62 g/ha, scale of 0 to 10 where 0 is no effect and 10 is complete control
[3] = Preemergence, Rate 250 g/ha, scale of 0 to 10 where 0 is no effect and 10 is complete control
[4] = Rate 31 g/ha, Postemergence, scale 0 to 10
[5] = Rate 125 g/ha, Preemergence, scale of 0 to 10 where 0 is no effect and 10 is complete control
[6] = Rate 62 g/ha, headed Pre-emergence (flood test species), scale 0 to 10 (0 no effect, 10 complete control)
[7] = Rate 125 g/ha, Pre-emergence, flood test species, scale 0 to 10 where 0 is no effect and 10 is complete control
[8] = Rate 250 g/ha, Pre-emergence, flood-test species, scale 0 to 10, 0 is no effect, 10 is complete control
[9] = Rate 500 g/ha, Pre-emergence, flood test species, scale 0 to 10 (0 no effect, 10 complete control)
[10] = Rate 62 g/ha, Postemergence, scale of 0 to 10 where 0 is no effect and 10 is complete control
[11] = Rate 125 g/ha, Postemergence, scale 0 to 10
[12] = Rate 31 g/ha, visual rating, scale 0 to 10 (0 no effect, 10 complete control)
[13] = Rate 62 g/ha, scale of 0 to 10 where 0 is no effect and 10 is complete control
[14] = Rate 250 g/ha, scale of 0 to 10 where 0 is no effect and 10 is complete control
[15] = Rate 125 g/ha, scale of 0 to 10 where 0 is no effect and 10 is complete control

SMILES: C=C(Cn1c(=O)on(C(=O)N(c2ccc(F)cc2)C(C)C)c1=O)C[Si](C)(C)C [Compound 256]
- Giant foxtail plant response rating (giant foxtail; [1]): 0
- Giant foxtail plant response rating (giant foxtail; [2]): 0
- Giant foxtail plant response rating (giant foxtail; [3]): 9
- Giant foxtail plant response rating (giant foxtail; [4]): 0
- Giant foxtail plant response rating (giant foxtail; [5]): 5
- Plant response rating (0 to 10; 0 is no effect, 10 is complete control), Giant foxtail (giant foxtail; Rate 250 g/ha, Postemergence): 0
- Barnyardgrass plant response rating (bamyardgrass; [6]): 0
- Barnyardgrass plant response rating (bamyardgrass; [7]): 0
- Barnyardgrass plant response rating (bamyardgrass; [8]): 0
- Barnyardgrass plant response rating (bamyardgrass; [9]): 0
- Redroot pigweed plant response rating (pigweed; [1]): 0
- Redroot pigweed plant response rating (pigweed; [2]): 0
- Redroot pigweed plant response rating (pigweed; [3]): 0
- Redroot pigweed plant response rating (pigweed; [4]): 0
- Redroot pigweed plant response rating (pigweed; [5]): 0
- Plant response rating (0 to 10; 0 is no effect, 10 is complete control), Redroot pigweed (pigweed; Rate 250 g/ha, Postemergence): 4
- Rape plant response rating (rape; [1]): 0
- Rape plant response rating (rape; [2]): 0
- Rape plant response rating (rape; [3]): 0
- Rape plant response rating (rape; [4]): 0
- Rape plant response rating (rape; [5]): 0
- Plant response rating (0 to 10; 0 is no effect, 10 is complete control), Rape (rape; Rate 250 g/ha, Postemergence): 2
- Cocklebur plant response rating (cocklebur; [1]): 0
- Cocklebur plant response rating (cocklebur; [2]): 0
- Cocklebur plant response rating (cocklebur; [3]): 0
- Cocklebur plant response rating (cocklebur; [4]): 0
- Cocklebur plant response rating (cocklebur; [10]): 0
- Cocklebur plant response rating (cocklebur; [11]): 0
- Cocklebur plant response rating (cocklebur; [5]): 0
- Plant response rating (0 to 10; 0 is no effect, 10 is complete control), Cocklebur (cocklebur; Rate 250 g/ha, Postemergence): 0
- Nutsedge plant response rating (purple nutsedge; [3]): 0
- Nutsedge plant response rating (purple nutsedge; [4]): 0
- Plant response rating (0 to 10; 0 is no effect, 10 is complete control), Nutsedge (purple nutsedge; Rate 250 g/ha, Postemergence): 0
- Bedstraw plant response rating (bedstraw; [1]): 0
- Bedstraw plant response rating (bedstraw; [2]): 0
- Bedstraw plant response rating (bedstraw; [3]): 0
- Bedstraw plant response rating (bedstraw; [4]): 0
- Bedstraw plant response rating (bedstraw; [10]): 0
- Bedstraw plant response rating (bedstraw; [11]): 0
- Bedstraw plant response rating (bedstraw; [5]): 0
- Plant response rating (0 to 10; 0 is no effect, 10 is complete control), Bedstraw (bedstraw; Rate 250 g/ha, Postemergence): 0
- Wheat plant response rating (wheat; [12]): 0
- Wheat plant response rating (wheat; [13]): 0
- Wheat plant response rating (wheat; [14]): 0
- Wheat plant response rating (wheat; [15]): 0
- Blackgrass plant response rating (blackgrass; [1]): 0
- Blackgrass plant response rating (blackgrass; [2]): 0
- Blackgrass plant response rating (blackgrass; [3]): 0
- Blackgrass plant response rating (blackgrass; [4]): 0
- Blackgrass plant response rating (blackgrass; [10]): 0
- Blackgrass plant response rating (blackgrass; [11]): 0
- Blackgrass plant response rating (blackgrass; [5]): 0
- Plant response rating (0 to 10; 0 is no effect, 10 is complete control), Blackgrass (blackgrass; Rate 250 g/ha, Postemergence): 0
- Ducksalad plant response rating (duck salad; [6]): 0
- Ducksalad plant response rating (duck salad; [7]): 0
- Ducksalad plant response rating (duck salad; [8]): 0
- Ducksalad plant response rating (duck salad; [9]): 0
- Rice plant response rating (rice; [6]): 0
- Rice plant response rating (rice; [7]): 0
- Rice plant response rating (rice; [8]): 0
- Rice plant response rating (rice; [9]): 0
- Velvetleaf plant response rating (velvetleaf; [12]): 0
- Velvetleaf plant response rating (velvetleaf; [13]): 0
- Velvetleaf plant response rating (velvetleaf; [14]): 0
- Velvetleaf plant response rating (velvetleaf; [15]): 0
- S. Flatsedge plant response rating (smallflower flatsedge; [6]): 0
- S. Flatsedge plant response rating (smallflower flatsedge; [7]): 0
- S. Flatsedge plant response rating (smallflower flatsedge; [8]): 0
- S. Flatsedge plant response rating (smallflower flatsedge; [9]): 0
- Crabgrass plant response rating (crabgrass; [1]): 0
- Crabgrass plant response rating (crabgrass; [2]): 0
- Crabgrass plant response rating (crabgrass; [3]): 2
- Crabgrass plant response rating (crabgrass; [4]): 0
- Crabgrass plant response rating (crabgrass; [5]): 2
- Plant response rating (0 to 10; 0 is no effect, 10 is complete control), Crabgrass (crabgrass; Rate 250 g/ha, Postemergence): 1
- B. signalgrass plant response rating (surinam grass; [1]): 0
- B. signalgrass plant response rating (surinam grass; [2]): 0
- B. signalgrass plant response rating (surinam grass; [3]): 0
- B. signalgrass plant response rating (surinam grass; [4]): 0
- B. signalgrass plant response rating (surinam grass; [10]): 0
- B. signalgrass plant response rating (surinam grass; Rate 125 g/ha, Postemergence, scale 0 (no effect) to 10 (complete control)): 0
- B. signalgrass plant response rating (surinam grass; [5]): 0
- Plant response rating (0 to 10; 0 is no effect, 10 is complete control), B. signalgrass (surinam grass; Rate 250 g/ha, Postemergence): 0
- Corn plant response rating (corn; [1]): 0
- Corn plant response rating (corn; [2]): 0
- Corn plant response rating (corn; [3]): 0
- Corn plant response rating (corn; [4]): 0
- Corn plant response rating (corn; [10]): 0
- Corn plant response rating (corn; [11]): 0
- Corn plant response rating (corn; [5]): 0
- Plant response rating (0 to 10; 0 is no effect, 10 is complete control), Corn (corn; Rate 250 g/ha, Postemergence): 0
- Wild oats plant response rating (wild oat; [12]): 0
- Wild oats plant response rating (wild oat; [13]): 0
- Wild oats plant response rating (wild oat; [14]): 0
- Wild oats plant response rating (wild oat; [15]): 0
- Morningglory plant response rating (morningglory; [1]): 0
- Morningglory plant response rating (morningglory; [2]): 0
- Morningglory plant response rating (morningglory; [3]): 0
- Morningglory plant response rating (morningglory; [4]): 6
- Morningglory plant response rating (morningglory; [5]): 0
- Soybean plant response rating (soybean; [12]): 0
- Soybean plant response rating (soybean; [13]): 0
- Soybean plant response rating (soybean; [14]): 0
- Soybean plant response rating (soybean; [15]): 0
- Sugarbeets plant response rating (sugar beet; [12]): 0
- Sugarbeets plant response rating (sugar beet; [13]): 0
- Sugarbeets plant response rating (sugar beet; [14]): 0
- Sugarbeets plant response rating (sugar beet; [15]): 0
